One block for each molecule: values may come before it.
Key:
CES1 = conditions: cited from earlier work
Ldlr KO rats = test: Lan treatment of Ldlr KO rats; format: in vivo, rat; conditions: Lan 50 mg/kg/day p.o. for 21 days
[1] = tested on: food-borne hypercholesteremia rat model; test: Lan treatment in food-borne hypercholesteremia rat model; format: in vivo
CYP1A [2] = conditions: Lan 50 mg/kg/day for 7 days; cited from earlier work
CYP1A [3] = tested on: CYP1A
[4] = CYP1A1/2 KO compared with WT group; caffeine 5 mg/kg by gavage
[5] = HCD + Lan 10 group (10 mg/kg/day, 11 weeks) vs HCD + Sol group
[6] = HCD + Lan 50 group (50 mg/kg/day, 11 weeks) vs HCD + Sol group
[7] = RLM of KO rats compared with WT rats

Structure (SMILES): CC(C)CCC[C@@H](C)[C@H]1CC[C@H]2[C@@H]3CC=C4C[C@@H](O)CC[C@]4(C)[C@H]3CC[C@]12C [cholesterol]
inhibitory effect on CES1 (CES1): no inhibitory effect

CYP1A protein expression in the liver (Ldlr KO rats; Western blot): significantly induced
Structure (SMILES): Cc1c(OCC(F)(F)F)ccnc1C[S+]([O-])c1nc2ccccc2[nH]1 (centres unmarked) [Lan, Lansoprazole]
lipids in serum, including TG, LDL-C, HDL-C, and T-C (Ldlr KO rats): remained unchanged
liver lipidosis (HE staining) (Ldlr KO rats): significantly alleviated
decrease of serum LDL-C content [1, 5]: 40%
decrease of serum TG concentration [1, 5]: 27%
increase of HDL-C/LDL-C ratio [1, 5]: 170%
reduction of serum T-C content [1, 5]: 39%
decrease of serum LDL-C content [1, 6]: 65%
decrease of serum TG concentration [1, 6]: 42%
increase of HDL-C/LDL-C ratio [1, 6]: 200%
reduction of serum T-C content [1, 6]: 47%
serum transaminases ([1]; HCD-fed rats, Lan treatment, 11 weeks): reduced serum transaminases to physiological levels
lipid accumulation in liver (oil red O staining) ([1]; both 10 and 50 mg/kg Lan groups vs HCD + Sol group, 11 weeks): less than that in the HCD + Sol group
increase of the metabolic activity of CYP1A in rats (CYP1A [2]): 4 times

Km of caffeine metabolism in RLM (CYP1A [3]; KO versus WT rats RLM): remained unchanged
decrease of CLint of caffeine (CYP1A [3]; [7]): 50%
decrease of Vmax of 3-demethylation caffeine formation (CYP1A [3]; [7]): 38%
increase of AUC of caffeine [4]: 200%
Structure (SMILES): Cn1c(=O)c2c(ncn2C)n(C)c1=O [caffeine]

Structure (SMILES): C[C@@H](CO)CCC[C@@H](C)[C@H]1CC[C@H]2[C@@H]3CC=C4C[C@@H](O)CC[C@]4(C)[C@H]3CC[C@]12C [27-hydroxycholesterol]
inhibitory effect on CES1 (CES1): strong selective inhibitory effect
